Data published in patent publication US5739104A, “Anti-fungal agents” (Schering Corporation, priority 1995, dated 1998).
Blank lines part the entries; values can stand above or below the compound they belong to. Starred links: 1 amine or outer side, 2 acyl side, 3 side chain; linkers in the order of their positions; H or OH if unused. Non-standard residues stand in square brackets, D forms with d. Residues, ends and D or L forms follow the SMILES beside them. X1 = O=C([C@H](O[*:1])C1CCCCC1)[*:2]; X2 = O=C([C@H](O[*:1])c1ccccc1)[*:2]; X3 = O=C([C@H](O[*:1])C1CCCC1)[*:2]; X4 = O=C([C@@H](O[*:1])C1CC1)[*:2]; NMeF = CN[C@@H](Cc1ccccc1)C(=O)O; NMeT = CN[C@H](C(=O)O)[C@@H](C)O; aIle = CC[C@@H](C)[C@H](N)C(=O)O; NMeV = CN[C@H](C(=O)O)C(C)C; dHiv = CC(C)[C@@H](O)C(=O)O; Pip = O=C(O)[C@@H]1CCCCN1; Aze = O=C(O)[C@@H]1CCN1

Experiments:
[1] = tested on: Candida albicans, Candida tropicalis, Candida stellatoidea, Candida parapsilosis, Candida krusei; test: In vitro anti-fungal microtiter minimum inhibitory concentration (MIC) test, geometric mean over Candida strains; assay type: cell-based
Description: The geometric mean is taken from the following strains
Candida stellatoidea C184
The minimum inhibitory concentrations (GMMICs-R(μg/ml) for Ca (SDB) Ca (EMEM) (Derm) and (Asp) for the compounds of formula I of the invention are as shown in Table 2 above.
The minimum inhibitory concentrations were determined in accordance with the procedure set forth just below.
In vitro anti-fungal activity was determined in microtiter minimum inhibitory concentration (MIC) tests using Yeast Nitrogen Broth (YNB without amino acids, Difco., Detroit, Mich.) at pH 5.4. Yeasts were grown overnight in Sabouraud Dextrose Broth at 28° C. with shaking, and concentrations adjusted in sterile saline using a spectrophoptometer at 540 mμ. Compounds were dissolved in various vehicles and diluted in media to twice the final concentrations. The Cetus Pro/Pette system was used to serially dilute 50 μl in round bottom 96 well plates (Falcon, Lincoln Park, N.J.). The turbidometrically adjusted yeast suspensions were diluted 1:3,000 in YNB. These dilutions when added to the wells, produced a final inoculum of 3×10^3 /ml. Plates were incubated at 37° C. for 48 hours. MICs were defined as the lowest concentrations of compound that prevented visible growth. MICs were taken against the following organisms and expressed in the table above as the geometric mean.

[2] = tested on: C. Albicans, C-43; test: In vivo anti-fungal activity, C. albicans infection study in mice; details: once a day for 4 days starting 4 hours post infection
Description: In vivo anti-fungal activity for compounds of formula I of the invention was determined by using the test protocol set forth in Cacciapuoti et al, ANTIMICROBIAL AGENTS AND CHEMOTHERAPY, Vol.36, No. 1, January 1992, p. 64-67, which is hereby incorporated by reference. The specific test protocol used to obtain the data given below, appears in the just above mentioned article at pages 64 and 65 under the heading "C. albicans infection studies". Data obtained from this test protocol are as follows:
The numbering for the compounds tested is the same as the numbering used for the compounds in the rest of the application. The mice used in the above experiment were Charles River, white, male, mice weighing between 18 and 20 grams. The organism used to infect the mice was C. Albicans, C-43, 1XE6 CFU/mice, 0.1 M1 IV. The treatment was once a day for 4 days starting 4 hours post infection for those compounds which have a * next to them. For those compounds which have no * next to them, the treatment was once a day for 4 days starting 24 hours post infection. The dose was 0.1 ml/mouse in either case. The vehicle used with the compounds was Tween 80:Ethanol:PBS (1:9:40 or 2%:18%:80%)

[3] = EMEM, geometric mean over 14 Candida strains, 37° C., 48 hours
[4] = SDB, geometric mean over 14 Candida strains, 37° C., 48 hours

- Geo. Mean MICs (μg/ml) Ca. (EMEM) ([1]; 48 h): 0.710 µg/mL
- Geo. Mean MICs (μg/ml) Ca. (SDB) ([1]; 48 h): 0.170 µg/mL
SMILES: CC[C@@H](C)[C@@H]1NC(=O)[C@@H]2CCCN2C(=O)[C@H](Cc2ccccc2)N(C)C(=O)[C@H](Cc2ccccc2)NC(=O)[C@H](C(C)C)N(C)C(=O)[C@@H](c2ccccc2)OC(=O)[C@H]([C@@H](C)O)N(C)C(=O)[C@H](CC(C)C)NC(=O)[C@H](C(C)C)N(C)C1=O [Compound 7] (cyclo(F[NMeF]P[aIle][NMeV]L[NMeT][X2][NMeV]))

- Geo. Mean MICs (μg/ml) Ca. (EMEM) ([1]; 48 h): 0.780 µg/mL
- Geo. Mean MICs (μg/ml) Ca. (SDB) ([1]; 48 h): 0.133 µg/mL
SMILES: CC[C@@H](C)[C@@H]1NC(=O)[C@@H]2CCCN2C(=O)[C@H](Cc2ccccc2)N(C)C(=O)[C@H](Cc2ccccc2)NC(=O)[C@H](C(C)C)N(C)C(=O)[C@H](C2CC2)OC(=O)[C@H]([C@@H](C)O)N(C)C(=O)[C@H](CC(C)C)NC(=O)[C@H](C(C)C)N(C)C1=O [Compound 8] (cyclo([X4][NMeV]F[NMeF]P[aIle][NMeV]L[NMeT]))

- Geo. Mean MICs (μg/ml) Ca. (EMEM) ([1]; 48 h): 0.475 µg/mL
- Geo. Mean MICs (μg/ml) Ca. (SDB) ([1]; 48 h): 0.290 µg/mL
SMILES: CC[C@@H](C)[C@@H]1NC(=O)[C@@H]2CCCCN2C(=O)[C@H](Cc2ccccc2)N(C)C(=O)[C@H](Cc2ccccc2)NC(=O)[C@H](C(C)C)N(C)C(=O)[C@@H](C2CCCCC2)OC(=O)[C@H]([C@@H](C)O)N(C)C(=O)[C@H](CC(C)C)NC(=O)[C@H](C(C)C)N(C)C1=O [Compound 9] (cyclo(F[NMeF][Pip][aIle][NMeV]L[NMeT][X1][NMeV]))

More lines, now with the values behind:

SMILES: CC[C@@H](C)[C@@H]1NC(=O)[C@@H]2CCCN2C(=O)[C@H](Cc2ccccc2)N(C)C(=O)[C@H](Cc2ccccc2)NC(=O)[C@H](C(C)C)N(C)C(=O)[C@@H](C2CCCCC2)OC(=O)[C@H]([C@@H](C)O)N(C)C(=O)[C@H](CC(C)C)NC(=O)[C@H](C(C)C)N(C)C1=O [Compound 1, Cyclo-depsi-N-methyl-threonyl-(2-hydroxyl-2-cyclohexylacetyl)-N-methylvalyl-phenylanalyl-N-methylphenylanalyl-prolyl-allo-isoleucyl-N-methylvalyl-leucine] (cyclo(F[NMeF]P[aIle][NMeV]L[NMeT][X1][NMeV]))
- Geo. Mean MICs (μg/ml) Ca. (EMEM) [1, 3]: 0.288 µg/mL
- Geo. Mean MICs (μg/ml) Ca. (SDB) [1, 4]: 0.018 µg/mL
- % Survival ([2]; 5 MPK IV): 60%
- CFUs (GM) ([2]; 5 MPK IV): 6.90
- % Survival ([2]; 5 MPK PO): 70%
- CFUs (GM) ([2]; 5 MPK PO): 6.68
- % Survival ([2]; 10 MPK IV): 70%
- CFUs (GM) ([2]; 10 MPK IV): 7.11
- % Survival ([2]; 10 MPK PO): 100%
- CFUs (GM) ([2]; 10 MPK PO): 6.01
- % Survival ([2]; 20 MPK PO): 100%
- CFUs (GM) ([2]; 20 MPK PO): 6.38
- % Survival ([2]; 40 MPK PO): 100%
- CFUs (GM) ([2]; 40 MPK PO): 6.52

SMILES: CC[C@@H](C)[C@@H]1NC(=O)[C@@H]2CCN2C(=O)[C@H](Cc2ccccc2)N(C)C(=O)[C@H](Cc2ccccc2)NC(=O)[C@H](C(C)C)N(C)C(=O)[C@@H](C2CCCC2)OC(=O)[C@H]([C@@H](C)O)N(C)C(=O)[C@H](CC(C)C)NC(=O)[C@H](C(C)C)N(C)C1=O [Compound 5] (cyclo([Aze][aIle][NMeV]L[NMeT][X3][NMeV]F[NMeF]))
- Geo. Mean MICs (μg/ml) Ca. (EMEM) ([1]; 48 h): 0.195 µg/mL
- Geo. Mean MICs (μg/ml) Ca. (SDB) ([1]; 48 h): 0.015 µg/mL

SMILES: CC[C@@H](C)[C@@H]1NC(=O)[C@@H]2CCN2C(=O)[C@H](Cc2ccccc2)N(C)C(=O)[C@H](Cc2ccccc2)NC(=O)[C@H](C(C)C)N(C)C(=O)[C@@H](C2CCCCC2)OC(=O)[C@H]([C@@H](C)O)N(C)C(=O)[C@H](CC(C)C)NC(=O)[C@H](C(C)C)N(C)C1=O [Compound 2, Cyclo-depsi-N-methyl-threonyl-(2-hydroxy-2-cyclohexylacetyl)-N-methylvalyl-phenylalanyl-N-methylphenylalanyl-azetidinyl-allo-isoleucyl-N-methylvalyl-leucine] (cyclo([Aze][aIle][NMeV]L[NMeT][X1][NMeV]F[NMeF]))
- Geo. Mean MICs (μg/ml) Ca. (EMEM) [1, 3]: 0.353 µg/mL
- Geo. Mean MICs (μg/ml) Ca. (SDB) [1, 4]: 0.062 µg/mL

SMILES: CC[C@@H](C)[C@@H]1NC(=O)[C@@H]2CCCN2C(=O)[C@H](Cc2ccccc2)N(C)C(=O)[C@H](Cc2ccccc2)NC(=O)[C@H](C(C)C)N(C)C(=O)[C@@H](C2CCCC2)OC(=O)[C@H]([C@@H](C)O)N(C)C(=O)[C@H](CC(C)C)NC(=O)[C@H](C(C)C)N(C)C1=O [Compound 6] (cyclo(F[NMeF]P[aIle][NMeV]L[NMeT][X3][NMeV]))
- Geo. Mean MICs (μg/ml) Ca. (EMEM) ([1]; 48 h): 0.500 µg/mL
- Geo. Mean MICs (μg/ml) Ca. (SDB) ([1]; 48 h): 0.090 µg/mL

SMILES: CC[C@@H](C)[C@@H]1NC(=O)[C@@H]2CCCN2C(=O)[C@H](Cc2ccccc2)N(C)C(=O)[C@H](Cc2ccccc2)NC(=O)[C@H](C(C)C)N(C)C(=O)[C@@H](C(C)C)OC(=O)[C@H]([C@@H](C)O)N(C)C(=O)[C@H](CC(C)C)NC(=O)[C@H](C(C)C)N(C)C1=O [Compound 4] (cyclo(F[NMeF]P[aIle][NMeV]L[NMeT][dHiv][NMeV]))
- Geo. Mean MICs (μg/ml) Ca. (EMEM) ([1]; 48 h): 0.500 µg/mL
- Geo. Mean MICs (μg/ml) Ca. (SDB) ([1]; 48 h): 0.032 µg/mL
